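Cells were grown in 96-well plates and exposed to each compound for 48 hours at five concentrations; endpoints were interpolated linearly between bracketing concentrations, or set to the highest concentration if not reached. At the GI50, growth is halved. TGI is the concentration that stops growth completely.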
Experiments:
Assay in all cases: NCI tumour cell line growth inhibition, 48 h
CAKI-1 renal = system: CAKI-1 renal
COLO 205 colon = system: COLO 205 colon
CCRF-CEM leukemia = system: CCRF-CEM leukemia
HT29 colon = system: HT29 colon
HCC-2998 colon = system: HCC-2998 colon
SK-MEL-2 melanoma = system: SK-MEL-2 melanoma
SR leukemia = system: SR leukemia
HOP-62 NSCLC = system: HOP-62 NSCLC
A549 NSCLC = system: A549 NSCLC
OVCAR-8 ovarian = system: OVCAR-8 ovarian
MOLT-4 leukemia = system: MOLT-4 leukemia
NCI-H522 lung = system: NCI-H522 lung
SK-MEL-5 melanoma = system: SK-MEL-5 melanoma
SN12C renal = system: SN12C renal
SF-539 CNS = system: SF-539 CNS
NCI-H226 lung = system: NCI-H226 lung
A498 renal = system: A498 renal
NCI/ADR-RES ovarian = system: NCI/ADR-RES ovarian
OVCAR-4 ovarian = system: OVCAR-4 ovarian
ACHN renal = system: ACHN renal
SNB-75 CNS = system: SNB-75 CNS
786-0 renal = system: 786-0 renal
TK-10 renal = system: TK-10 renal
PC-3 prostate = system: PC-3 prostate
T-47D breast = system: T-47D breast
NCI-H23 lung = system: NCI-H23 lung
HCT-116 colon = system: HCT-116 colon
SF-295 CNS = system: SF-295 CNS
SW-620 colon = system: SW-620 colon
DU-145 prostate = system: DU-145 prostate
U251 CNS = system: U251 CNS
RPMI-8226 leukemia = system: RPMI-8226 leukemia
BT-549 breast = system: BT-549 breast
SK-MEL-28 melanoma = system: SK-MEL-28 melanoma
NCI-H460 lung = system: NCI-H460 lung
MDA-MB-435 = system: MDA-MB-435
SF-268 CNS = system: SF-268 CNS
HCT-15 colon = system: HCT-15 colon
UO-31 renal = system: UO-31 renal
HL-60(TB) leukemia = system: HL-60(TB) leukemia
SNB-19 CNS = system: SNB-19 CNS
SK-OV-3 ovarian = system: SK-OV-3 ovarian
KM12 colon = system: KM12 colon
EKVX NSCLC = system: EKVX NSCLC
RXF 393 renal = system: RXF 393 renal
M14 melanoma = system: M14 melanoma
OVCAR-3 ovarian = system: OVCAR-3 ovarian
HOP-92 NSCLC = system: HOP-92 NSCLC
MDA-MB-231 breast = system: MDA-MB-231 breast
OVCAR-5 ovarian = system: OVCAR-5 ovarian
LOX IMVI melanoma = system: LOX IMVI melanoma
HS 578T breast = system: HS 578T breast

## N#Cc1cnc2cc(OC[C@@H](O)CO)c(NC(=O)C3CCCC3)cc2c1Nc1ccc(OCc2cccc(F)c2)c(Cl)c1
CAKI-1 renal
  GI50: 5610 nM
  TGI: > 50000 nM
COLO 205 colon
  GI50: 4280 nM
  TGI: 26000 nM
CCRF-CEM leukemia
  GI50: 480 nM
  TGI: 2190 nM
HT29 colon
  GI50: 1390 nM
  TGI: 3840 nM
HCC-2998 colon
  GI50: 1100 nM
  TGI: 3380 nM
SK-MEL-2 melanoma
  GI50: 915 nM
  TGI: 1860 nM
SR leukemia
  GI50: 1240 nM
  TGI: > 50000 nM
HOP-62 NSCLC
  GI50: 1030 nM
  TGI: 2620 nM
A549 NSCLC
  GI50: 6740 nM
  TGI: 14900 nM
OVCAR-8 ovarian
  GI50: 1160 nM
  TGI: 3010 nM
MOLT-4 leukemia
  GI50: 1490 nM
  TGI: 4690 nM
NCI-H522 lung
  GI50: 568 nM
  TGI: 1340 nM
SK-MEL-5 melanoma
  GI50: 7720 nM
  TGI: 17500 nM
SN12C renal
  GI50: 1880 nM
  TGI: 28600 nM
SF-539 CNS
  GI50: 1150 nM
  TGI: 2930 nM
NCI-H226 lung
  GI50: 3860 nM
  TGI: 11400 nM
A498 renal
  GI50: 2780 nM
  TGI: 13400 nM
NCI/ADR-RES ovarian
  GI50: 21700 nM
  TGI: > 50000 nM
OVCAR-4 ovarian
  GI50: 514 nM
  TGI: 1280 nM
ACHN renal
  GI50: 3010 nM
  TGI: > 50000 nM
SNB-75 CNS
  GI50: 2190 nM
  TGI: > 50000 nM
786-0 renal
  GI50: 4510 nM
  TGI: 11700 nM
TK-10 renal
  GI50: 1990 nM
  TGI: 7210 nM
PC-3 prostate
  GI50: 947 nM
  TGI: 1920 nM
T-47D breast
  GI50: 1130 nM
  TGI: 4310 nM
NCI-H23 lung
  GI50: 1870 nM
  TGI: 11900 nM
HCT-116 colon
  GI50: 400 nM
  TGI: 1100 nM
SF-295 CNS
  GI50: 3780 nM
  TGI: 12200 nM
SW-620 colon
  GI50: 1530 nM
  TGI: 6780 nM
DU-145 prostate
  GI50: 712 nM
  TGI: 1420 nM
U251 CNS
  GI50: 6790 nM
  TGI: 15600 nM
RPMI-8226 leukemia
  GI50: 728 nM
  TGI: 3120 nM
BT-549 breast
  GI50: 1090 nM
  TGI: 2890 nM
SK-MEL-28 melanoma
  GI50: 669 nM
  TGI: 1420 nM
NCI-H460 lung
  GI50: 1050 nM
  TGI: 4730 nM
MDA-MB-435
  GI50: 1820 nM
  TGI: 7710 nM
SF-268 CNS
  GI50: 1370 nM
  TGI: 5980 nM
HCT-15 colon
  GI50: 2450 nM
  TGI: > 50000 nM
UO-31 renal
  GI50: 2210 nM
  TGI: > 50000 nM
HL-60(TB) leukemia
  GI50: 789 nM
  TGI: 2760 nM
SNB-19 CNS
  GI50: 3690 nM
  TGI: > 50000 nM
SK-OV-3 ovarian
  GI50: 3230 nM
  TGI: 11500 nM
KM12 colon
  GI50: 3840 nM
  TGI: 14200 nM
EKVX NSCLC
  GI50: 1330 nM
  TGI: 6740 nM
RXF 393 renal
  GI50: 1290 nM
  TGI: 3410 nM
M14 melanoma
  GI50: 765 nM
  TGI: 1610 nM
OVCAR-3 ovarian
  GI50: 874 nM
  TGI: 1820 nM
HOP-92 NSCLC
  GI50: 990 nM
  TGI: 2480 nM
MDA-MB-231 breast
  GI50: 740 nM
  TGI: 1820 nM
OVCAR-5 ovarian
  GI50: 7690 nM
  TGI: 17200 nM
LOX IMVI melanoma
  GI50: 1010 nM
  TGI: 2280 nM
HS 578T breast
  GI50: 265 nM
  TGI: 1430 nM
